We go through nine molecules from patent publication US10681909B2, “Herbicidal triazoles” (FMC Corporation, priority 2014, dated 2020).

The test system of experiment [1] is velvetleaf. The experiment can be described thus: Test A preemergence. It counts as in vivo, Abutilon theophrasti. Particulars: Abutilon theophrasti, pre-emergence, 240 h, 0 to 100 scale (0 no effect, 100 complete control), read-out: Plant response rating, Velvetleaf; for pest or weed control at 125 g/ha: 125 g ai/ha; for pest or weed control at 500 g/ha: 500 g ai/ha, approx. 10 d. The method, boiled down:
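Loam/sand soil mix; compound in non-phytotoxic solvent + surfactant. Pre: directed soil spray right after planting seed. Post: potted plants 2–10 cm, 1–2 leaf stage, sprayed with same formulation.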

The next experiment relates to ryegrass, Italian. The experiment can be described thus: Test C preemergence. It counts as in vivo, Lolium multiflorum. Particulars: for Ryegrass, Italian plant response rating (0 to 100): Preemergence, visual rating after 13 to 15 d; for Plant response rating (scale of 0 to 100 where 0 is no effect and 100 is complete control): Ryegrass, Italian, preemergence. The text has this: (§1) Seeds of plant species selected from blackgrass (Alopecurus myosuroides), ryegrass, Italian (Italian ryegrass, Lolium multiflorum), wheat (winter wheat, Triticum aestivum), galium (catchweed bedstraw, Galium aparine), corn (Zea mays), crabgrass, large (large crabgrass, Digitaria sanguinalis), foxtail, giant, (giant foxtail, Setaria faberii), johnsongrass (Sorghum halepense), lambsquarters (Chenopodium album), morningglory (Ipomoea coccinea), nutsedge, yellow (yellow nutsedge, Cyperus esculentus), pigweed (Amaranthus retroflexus), ragweed (common ragweed, Ambrosia elatior), soybean (Glycine max), barnyardgrass (Echinochloa crus-galli), oilseed rape (Brassica napus), waterhemp (common waterhemp, Amaranthus rudis), and velvetleaf (Abutilon theophrasti) were planted into a blend of loam soil and sand and treated preemergence with test chemicals formulated in a non-phytotoxic solvent mixture which included a surfactant. At the same time, plants selected from these crop and weed species and also chickweed (common chickweed, Stellaria media), oat, wild (wild oat, Avena fatua), and kochia (Kochia scoparia), were planted in pots containing Sunshine Redi-Earth® planting medium comprising spaghnum peat moss, vermiculite, starter nutrients and dolomitic limestone and treated with postemergence applications of test chemicals formulated in the same manner. Plants ranged in height from 2 to 18 cm (1- to 4-leaf stage) for postemergence treatments. […] A dash (-) response means no test result.

For the next experiment, the system named is ragweed. The experiment in a line: Test C preemergence. Particulars: for Ragweed plant response rating (0 to 100): Preemergence, visual rating after 13 to 15 d; for Plant response rating (scale of 0 to 100 where 0 is no effect and 100 is complete control): Ragweed, preemergence. It counts as in vivo, Ambrosia elatior.
Description: as §1

In experiment [2] the test system is velvetleaf. The experiment in a line: Test C preemergence. Particulars: for Velvetleaf plant response rating (0 to 100): Preemergence, visual rating after 13 to 15 d; for Plant response rating (scale of 0 to 100 where 0 is no effect and 100 is complete control): Velvetleaf, preemergence, 250 g ai/ha. It counts as in vivo, Abutilon theophrasti.
Description: as §1

For the molecule `Cn1nc(-c2ccc(F)cc2)nc1Oc1cccc(C(F)(F)F)c1` [Compound 5, 3-(4-fluorophenyl)-1-methyl-5-[3-(trifluoromethyl)phenoxy]-1H-1,2,4-triazole], in the experiment on velvetleaf [1], the pest or weed control at 125 g/ha is 0% and the pest or weed control at 500 g/ha turned out to be 0%.

Take `CCCc1nc(-c2ccc(F)cc2)nn1Cc1ccnc(C(F)(F)F)c1` [Compound 6, 4-[[3-(4-fluorophenyl)-5-propyl-1H-1,2,4-triazol-1-yl]methyl]-2-(trifluoromethyl)pyridine]: the pest or weed control at 125 g/ha in the experiment with velvetleaf [1] is 40%. Further, the pest or weed control at 500 g/ha in the experiment on velvetleaf [1] worked out at 100%. Moreover, the “Ryegrass, Italian plant response rating (0 to 100)” value (shortened to “Ryegrass … (0 to 100)”) was determined as 30 in the experiment with ryegrass, Italian (31 g ai/ha) and 70 in the experiment on ryegrass, Italian (62 g ai/ha). Further, the “Plant response rating (scale of 0 to 100 where 0 is no effect and 100 is complete control)” value with ryegrass, Italian (125 g ai/ha) amounted to 80; in the experiment on ryegrass, Italian (250 g ai/ha) it was 100; in the experiment with ragweed (125 g ai/ha), 55; with ragweed (250 g ai/ha), 80; in the experiment on velvetleaf [2], 100. Further, the “Ragweed plant response rating (0 to 100)” value in the experiment with ragweed (31 g ai/ha) and in the experiment on ragweed (62 g ai/ha) was 20 throughout. Further, the “Velvetleaf plant response rating (0 to 100)” value in the experiment on velvetleaf [2] (31 g ai/ha) came to 20; in the experiment on velvetleaf [2] (62 g ai/ha), 75.

On to `COc1nc(-c2ccc(F)cc2)nn1Cc1ccnc(C(F)(F)F)c1` [Compound 9, 4-[[3-(4-fluorophenyl)-5-methoxy-1H-1,2,4-triazol-1-yl]methyl]-2-(trifluoromethyl)pyridine], for which the pest or weed control at 125 g/ha in the experiment on velvetleaf [1] came out at 0%. Further, the pest or weed control at 500 g/ha in the experiment with velvetleaf [1] worked out at 80%. For the same molecule, the “Ryegrass … (0 to 100)” value in the experiment with ryegrass, Italian (31 g ai/ha) is recorded as 5; with ryegrass, Italian (62 g ai/ha) it was 25. The “Plant response rating (scale of 0 to 100 where 0 is no effect and 100 is complete control)” value in the experiment with ryegrass, Italian (125 g ai/ha) is 65; in the experiment on ryegrass, Italian (250 g ai/ha) it was 85; with ragweed (125 g ai/ha), 60; with ragweed (250 g ai/ha) it was 85; in the experiment with velvetleaf [2], 60. Besides, the “Ragweed plant response rating (0 to 100)” value is recorded as 25 with ragweed (31 g ai/ha) and 60 with ragweed (62 g ai/ha). The results for the “Velvetleaf plant response rating (0 to 100)” value in the experiment with velvetleaf [2] (31 g ai/ha) and with velvetleaf [2] (62 g ai/ha) were 20 and 25, respectively.

For the molecule `Cn1nc(-c2ccc(F)cc2)nc1C(O)c1ccnc(C(F)(F)F)c1` (stereo not drawn) [Compound 14, α-[3-(4-fluorophenyl)-1-methyl-1H-1,2,4-triazol-5-yl]-2-(trifluoromethyl)-4-pyridinemethanol], in the experiment with velvetleaf [1], the pest or weed control at 125 g/ha was found to be 0% and the pest or weed control at 500 g/ha is 0%.

Consider `CCn1nc(-c2ccc(F)cc2)nc1C(O)c1ccnc(C(F)(F)F)c1` (stereo not drawn) [Compound 15, α-[1-Ethyl-3-(4-fluorophenyl)-1H-1,2,4-triazol-5-yl]-2-(trifluoromethyl)-4-pyridinemethanol], for which, in the experiment on velvetleaf [1], the pest or weed control at 125 g/ha came out at 0% and the pest or weed control at 500 g/ha was determined as 0%.

As for `CCCn1nc(-c2ccc(F)cc2)nc1Cc1ccnc(C(F)(F)F)c1` [Compound 17, 4-[[3-(4-fluorophenyl)-1-propyl-1H-1,2,4-triazol-5-yl]methyl]-2-(trifluoromethyl)pyridine], in the experiment on velvetleaf [1], the pest or weed control at 125 g/ha came to 90% and the pest or weed control at 500 g/ha worked out at 100%.

As for `CCn1nc(-c2ccc(F)cc2)nc1C(=O)c1ccnc(C(F)(F)F)c1` [Compound 19, [1-ethyl-3-(4-fluorophenyl)-1H-1,2,4-triazol-5-yl][2-(trifluoromethyl)-4-pyridinyl]methanone], in the experiment with velvetleaf [1], the pest or weed control at 125 g/ha was 0% and the pest or weed control at 500 g/ha is 0%.

In the case of `CS(=O)(=O)c1nc(-c2ccc(F)cc2)nn1Cc1ccnc(C(F)(F)F)c1` [Compound 29, 4-[[3-(4-fluorophenyl)-5-(methylsulfonyl)-1H-1,2,4-triazole-1-yl]methyl]-2-(trifluoromethyl)pyridine], in the experiment with velvetleaf [1], the pest or weed control at 125 g/ha worked out at 0% and the pest or weed control at 500 g/ha amounted to 0%.

Take `COc1nc(-c2ccccc2)nn1Cc1ccnc(C(F)(F)F)c1` [Compound 32]: the “Ryegrass … (0 to 100)” value was found to be 0 in the experiment with ryegrass, Italian (31 g ai/ha) and 0 with ryegrass, Italian (62 g ai/ha). Moreover, the “Plant response rating (scale of 0 to 100 where 0 is no effect and 100 is complete control)” value in the experiment with ryegrass, Italian (125 g ai/ha) came out at 0; with ryegrass, Italian (250 g ai/ha) it was 10; in the experiment on ragweed (125 g ai/ha), 10; in the experiment on ragweed (250 g ai/ha), 65; in the experiment with velvetleaf [2], 60. Further, the “Ragweed plant response rating (0 to 100)” value was determined as 0 in the experiment on ragweed (31 g ai/ha) and 5 in the experiment with ragweed (62 g ai/ha). Also, the “Velvetleaf plant response rating (0 to 100)” value in the experiment on velvetleaf [2] (31 g ai/ha) stood at 20; with velvetleaf [2] (62 g ai/ha), 10.
